Converted amounts (≈) assume the structure as drawn.
Tested on: Vero
Test: Concentration required for 50% inhibition of herpes simplex virus 2 (HSV-2) using standard plaque reduction assay in vero cells
Assay type: functional, cell-based
Conditions: Chlorocebus sabaeus

Q: Which IC50 does the source give for C[C@]12CC[C@]3(C1)[C@H](CC2=O)C[C@@H](OC(=O)c1ccccc1)[C@H]1[C@](C)(C(=O)O)CCC[C@@]13C [SCOPADULCIC ACID B] here?
A: Its IC50 is 0.2 µg/mL (≈ 0.456 µM).

Tested on: not listed separately
Test: Concentration required for 50% inhibition of herpes simplex virus 2(HSV-2) using standard plaque reduction assay in vero cells
Assay type: functional, cell-based
Conditions: Chlorocebus sabaeus

Q: For CC(C)c1ccc2c(c1)CC[C@H]1[C@@H](CO)[C@@H](O)CC[C@]21C, which IC50 is on record?
A: Its IC50 is 20 µg/mL (≈ 69.3 µM).

Q: With CC(C)c1ccc2c(c1)CC[C@H]1[C@](C)(C(=O)O)CCC[C@]21C [DEHYDROABIETIC ACID] as the compound, how does the IC50 read?
A: Its IC50 is 20 µg/mL (≈ 66.6 µM).

Q: Which IC50 does the source give for CC(C)c1ccc2c(c1)CC[C@H]1[C@H](O)[C@@H](O)CC[C@]21C here?
A: Its IC50 is 19 µg/mL (≈ 69.2 µM).

Q: For CC(C)c1ccc2c(c1)CC[C@H]1[C@@H](O)CCC[C@]21C, which IC50 is on record?
A: Its IC50 is 15 µg/mL (≈ 58 µM).

Q: With CC(C)c1ccc2c(c1)CC[C@H]1[C@](C)(Sc3ccccn3)CCC[C@]21C as the compound, how does the IC50 read?
A: Its IC50 is 20 µg/mL (≈ 54.7 µM).

Q: With C[C@@]1(CO)[C@H](O)CC[C@@]2(C)[C@H]1CCC1C[C@@H]3C[C@@]12CC[C@]3(O)CO (stereo partly drawn) as the compound, how does the IC50 read?
A: Its IC50 is 0.2 µg/mL (≈ 0.591 µM).

Q: For C=C1[C@@H](O)CC[C@]2(C)c3ccc(C(C)C)cc3CC[C@@H]12, which IC50 is on record?
A: The IC50 was 3 µg/mL (≈ 11.1 µM).

Q: For CC(C)c1ccc2c(c1)CC[C@H]1C(=O)[C@@H](O)CC[C@]21C, which IC50 is on record?
A: The IC50 was 8 µg/mL (≈ 29.4 µM).

Q: With CC(C)c1ccc2c(c1)CC[C@H]1[C@@H](CO)CCC[C@]21C as the compound, how does the IC50 read?
A: The IC50 was 9 µg/mL (≈ 33 µM).

Q: For C=C1CCC[C@]2(C)c3ccc(C(C)C)cc3CC[C@@H]12, which IC50 is on record?
A: The IC50 was 10 µg/mL (≈ 39.3 µM).

Q: Which IC50 does the source give for COC(=O)[C@]1(C)CCC[C@]2(C)c3ccc(C(C)C)cc3CC[C@@H]12 [METHYL DEHYDROABIETATE] here?
A: Its IC50 is 20 µg/mL (≈ 63.6 µM).

Q: With CC(C)c1ccc2c(c1)CC[C@H]1[C@]3(CCC[C@]21C)CO3 as the compound, how does the IC50 read?
A: The IC50 was 20 µg/mL (≈ 74 µM).

Q: Which IC50 does the source give for CC(C)c1ccc2c(c1)CC[C@H]1C(=O)CCC[C@]21C here?
A: The IC50 was 14 µg/mL (≈ 54.6 µM).

Q: Which IC50 does the source give for CC(C)c1ccc2c(c1)CC[C@H]1[C@@](O)(CO)CCC[C@]21C here?
A: The IC50 was 14 µg/mL (≈ 48.5 µM).

Q: For CC(C)c1ccc2c(c1)CC[C@H]1[C@](C)(CO)CCC[C@]21C [POMIFERIN A], which IC50 is on record?
A: Its IC50 is 17 µg/mL (≈ 59.3 µM).

Q: With CC(C)c1ccc2c(c1)CC[C@H]1[C@@](O)(CO)[C@@H](O)CC[C@]21C as the compound, how does the IC50 read?
A: The IC50 was 9 µg/mL (≈ 29.6 µM).

Q: For Nc1nc2c(ncn2COCCO)c(=O)[nH]1 [ACYCLOVIR], which IC50 is on record?
A: Its IC50 is 1.5 µg/mL (≈ 6.66 µM).

— ChEMBL document CHEMBL1127281, “Synthesis and anti-herpes activity of some a-ring functionalized dehydroabietane derivatives” (Bioorg Med Chem Lett, 1994)
